Results from patent publication US10450327B2, “Epidithiodioxopiperazine compound or its derivatives, and the use thereof” (priority 2011, dated 2019).

How the values were obtained:
[1] = system: VEGFR2 and ERK; test: VEGF-induced signaling, immunoblot, PrxII knocked down HAECs; type: cell-based, human; details: 2 hours pretreatment, VEGF 10 minutes
Description: The cells were rinsed with an ice-cold phosphate buffered saline (PBS) solution and then lysed in an extraction buffer solution containing 20 mM Hepes (pH 7.0), 1% Triton X-100, 150 mM NaCl, 10% glycerol, 1 mM EDTA, 2 mM EGTA, 1 mM DTT, 5 mM Na3VO4, 5 mM NaF, 1 mM AEBSF, aprotinin (5 μg/ml), and leupeptin (5 μg/ml). After being centrifuged at 12,000×g, the purified cell extracts were used for immunoblotting. In order to adjust the loading, the membranes were stripped by shaking them for 30 minutes at 60° C. in 67 mM Tris (pH 6.7), 2% SDS, and 100 mM 2-mercaptoethanol solution, and reprobed with an appropriate pan antibody.
In addition, the regulatory effects of GT on the PDGFRβ- and VEGFR2-mediated signaling pathway were examined. The GT treatment in HASMCs was quite different from PDGF-induced tyrosine phosphorylation that was enhanced by the PrxII knockdown (FIG. 12a). […] Conversely, the GT treatment in HAECs restored the VEGF-dependent activation of VEGFR2 and ERK that had been diminished by the PrxII knockdown (FIG. 12b). The effects of GT in vascular cell fuction were further validated.
Lastly, the effects of GT, a representative ETP compound, on vascular cells were compared with the effects of other compounds known as anti-oxidant compounds such as N-acetylcysteine or butylated hydroxyanisole, and the results are shown in FIG. 33. Immunoblotting was performed by pretreating HAECs in which PrxII was knocked down by injecting siRNA with each compound at the concentrations indicated in the graphs for two hours, and then treating with VEGF for 10 minutes. […] These comparative experiments led the inventors of the present invention to conclude that the distinguished […] function of the ETP compounds is clearly due to the PrxII-analogous activity, and additionally to the special chemical property of the dithioketopiperazine ring.

[2] = system: NADPH oxidase (NOX); test: NADPH oxidase activity assay (whole cell superoxide production); type: cell-based, human; details: HASMCs with PDGF-B and HAECs with VEGF-A; until concentrations increased up to 500 nM
Description: Whole cell superoxide production was measured using an enhanced luminescence system (Diogenes, National Diagnostics). For the assay, the serum-starved cells were pre-incubated with a 100 μl Diogene reagent at 37° C. for 5 minutes. After being stimulated by the indicated growth factor, chemiluminescence was detected every second for 10 minutes with a TD-20/20 Luminometer (Turner Biosystems).
When HASMCs and HAECs were stimulated with PDGF-B and VEGF-A, respectively, the NOX activity increased approximately twofold. […] Thus, it was seen that these ETP compounds function as hydrogen peroxide reductase capable of replacing PrxII in both vascular cells, but the mechanism was not the inhibition of hydrogen peroxide producer NOX.

[3] = system: human aortic smooth muscle cells (HASMCs); test: Cytotoxicity (cell viability), HASMCs; type: cell-based; details: compared with gliotoxin and A1 to A9
Description: (§1) Most ETP compounds have been known to be cytotoxic to animal cells. Accordingly, the inventors of the present invention determined a safe concentration range of the epidithiodioxopiperazine compound or its derivatives in vascular cells. For this, human aortic smooth muscle cells (HASMCs) and human aortic endothelial cells (HAECs) were pretreated for 2 hours with various concentrations of gliotoxin or chaetocin, and A1 to A9 that are ETP derivatives according to the present invention, and cultured in a fresh medium for 24 hours followed by cell viability assay (FIGS. 6 to 10).

[4] = system: SK-MEL28 melanoma cells; type: cell-based, human; details: at a concentration of 100 nM; tested 0, 100, 200, 500 and 1000 nM
Description: Specifically, after chaetocin and chetomin was treated with SK-MEL28 melanoma cells at different concentrations (0, 100, 200, 500 and 1000 nM), the cell viability was checked, and the result is shown in FIG. 54A.

[5] = system: human aortic endothelial cells (HAECs); test: Cytotoxicity (cell viability), HAECs; type: cell-based; details: compared with gliotoxin and A1 to A9
Description: as §1

[6] = system: B16F10 melanoma cells; test: Metastasis of B16F10 melanoma cells to lung in mouse; type: in vivo; details: i.p. 5 times over 10 days after i.v. injection of B16F10 cells
Description: After B16F10 cells were temporarily transfected with PrxII siRNA for 24 hours and trypsinized, the cells were resuspended in a Hank's balanced salt solution (HBSS). The cell suspension was injected by intravenous injection to a C57/BL6 mouse (1×10^6 cells per mouse). The mouse was sacrified after 10 days, and the lung was removed after transcardia perfusion-fixation with a heparinized saline solution including 3.7% formaldehyde. The removed lung was paraffin embedded and sectioned using a rotary microtome (Leica RM2255). Two serial tissue sections (4 μm in thickness) were stained with haematoxylin and eosin. The melanoma tumor nodules metastasized from the surface of the lung and the HE-stained tissue sections were counted. In order to verify the effects of gliotoxin (GT), chaetocin and chetomin, the melanoma cells were intravenously injected to the C57/BL6 mouse, and then gliotoxin (300 mg/kg) was intraperitoneally injected for 5 times over 10 days.

[7] = system: yeast thioredoxin (Trx) / yeast thioredoxin reductase (TR) system; test: Peroxidase activity assay (hydrogen peroxide reduction), Trx/TR system; type: biochemical
Description: (§2) The peroxidase activity assay for the epidithiodioxopiperazine derivatives according to the present invention (hereinafter, referred to as ETP compounds) was performed according to known methods [Korean Patent No. 10-0953326]. A standard peroxidase reaction for spectrophotometric assay was carried out using a 200 μl reaction mixture of 1 mM EDTA-containing 50 mM Hepes-NaOH buffer solution (pH 7.0) including 250 μM NADPH, 3 μM yeast thioredoxin (Trx), 1.5 μM yeast thioredoxin reductase (TR), 25 μM ETP compound and […] of hydrogen peroxide. For the comparison with a glutathione (GSH)-dependent peroxidase reaction, GSH (1 mM) and yeast glutathione reductase (GSH reductase; GR) (1 Unit) were added instead of yeast Trx and TR. Each reaction was initiated by adding hydrogen peroxide, and the NADPH oxidation was monitored for 12 minutes at 30° C. according to absorbance decrease at 340 nm using an Agilent UV8453 spectrophotometer (Hewlett Packard, USA). The initial reaction rate was calculated using the linear portion of the curve and expressed as the amount of NADPH oxidized per minute.
The chemical feature of the epidithiodioxopiperazine compound of the present invention or its derivatives is the intramolecular disulfide bridge present in the epidithiodioxopiperazine ring moiety. Cellular peroxidase reduces hydrogen peroxide utilizing the electrons derived from NADPH via two electron-transfer routes, that is, Trx/TR or GSH/GR, therefore, spectrophotometric assay was performed for the hydrogen peroxide-reducing activity in the presence of each system, and the results are shown in FIGS. 1 to 5.

[8] = system: SK-MEL-28 (SK28) cells; test: Melanoma proliferation and migration assay, SK28; type: cell-based, human; details: 100 nM, 1 hour pretreatment
Description: The extent of cell proliferation was measured using a WST-1 cell proliferation assay kit (Roche Diagnostics, USA) according to the protocol of the manufacturer. The number of cells was expressed as an absorbance value at 450 nm averaged from 3 wells after subtracting the turbidity at 600 nm. The chemotactic transmigration assay was performed in a 24-well Transwell culture chamber (Costar; polycarbonate membrane insert with 8-μm pore size). The bottom of the insert was coated with gelatin B (1 mg/ml) and air-dried for 1 hour. Retroviruses or transfection complexes were treated to melanoma cells (6×10^3). After 24 hours, the infected or transfected melanoma cells were serum-starved for 18 hours. A 20% FBS solution was added to bottom chambers including a basal medium containing 0.5% BSA. The upper chamber wells were each filled with a basal medium including 0.5% BSA. The Transwell chamber was incubated for 12 hours in a 37° C./5% CO2 incubator. After the incubation, the non-migrating cells at the top of the filter were removed. The cells that migrated onto the bottom of filter were fixed and stained with 0.6% hematoxylin and 0.5% eosin. The stained cells were photographed and counted. The number of migrating cells was averaged from 3 wells. […]

[9] = system: GSH / yeast glutathione reductase (GR) system; test: Peroxidase activity assay (hydrogen peroxide reduction), GSH/GR system; type: biochemical; details: 25 μM ETP compound, GSH 1 mM, GR 1 Unit
Description: as §2
The chemical feature of the epidithiodioxopiperazine compound of the present invention or its derivatives is the intramolecular disulfide bridge present in the epidithiodioxopiperazine ring moiety. […]

CC(=O)N[C@@H](CS)C(=O)O [N-acetylcysteine]
VEGF-dependent activation of VEGFR2 and ERK [1]: did not induce

COc1ccc(O)c(C(C)(C)C)c1 [butylated hydroxyanisole]
VEGF-dependent activation of VEGFR2 and ERK [1]: did not induce

CN1C(=O)[C@@]23C[C@]4([C@]56C[C@@]78SS[C@@](CO)(C(=O)N7[C@H]5Nc5ccccc56)N(C)C8=O)c5ccccc5N[C@@H]4N2C(=O)[C@]1(CO)SS3 [chaetocin]
NOX activity [2]: did not inhibit | relative toxicity to HASMCs [3]: relatively less toxic | toxicity (cell viability) [4]: toxicity was not shown | relative toxicity to HAECs [5]: relatively less toxic

CN1C(=O)[C@]2(Cc3cn([C@]45C[C@@]67SS[C@@](CO)(C(=O)N6[C@H]4Nc4ccccc45)N(C)C7=O)c4ccccc34)SS[C@@]1(CO)C(=O)N2C [chetomin]
metastasis of B16F10 melanoma cells to lung (tumor nodules) [6]: significantly reduced | toxicity (cell viability) [4]: toxicity was not shown | activity in the presence of a Trx/TR system relative to the activity of GT [7]: approximately two-fold higher | hydrogen peroxide-reducing activity in the presence of a Trx/TR system ([7]; 25 μM ETP compound, 30° C., NADPH oxidation at 340 nm): 8.62 ± 0.51 nmol/min | proliferation and migration responding to serum stimulation, SK28 [8]: effectively impeded | hydrogen peroxide-reducing activity in the presence of a GSH/GR system [9]: 2.53 ± 0.79 nmol/min
